From publication PMC7679387, “VZHE-039, a novel antisickling agent that prevents erythrocyte sickling under both hypoxic and anoxic conditions” (Scientific Reports, 2020)
Several values for one entry are separate records, joined by “and”; a condition that tells them apart may be missing. Identical values can stand only once.

Experiments:
[1] = biological target: T1, CYP1A2 (Homo sapiens, UniProt P05177); assay: In vitro CYP inhibition, pooled human liver microsomes
T1 sequence (P05177 1-516): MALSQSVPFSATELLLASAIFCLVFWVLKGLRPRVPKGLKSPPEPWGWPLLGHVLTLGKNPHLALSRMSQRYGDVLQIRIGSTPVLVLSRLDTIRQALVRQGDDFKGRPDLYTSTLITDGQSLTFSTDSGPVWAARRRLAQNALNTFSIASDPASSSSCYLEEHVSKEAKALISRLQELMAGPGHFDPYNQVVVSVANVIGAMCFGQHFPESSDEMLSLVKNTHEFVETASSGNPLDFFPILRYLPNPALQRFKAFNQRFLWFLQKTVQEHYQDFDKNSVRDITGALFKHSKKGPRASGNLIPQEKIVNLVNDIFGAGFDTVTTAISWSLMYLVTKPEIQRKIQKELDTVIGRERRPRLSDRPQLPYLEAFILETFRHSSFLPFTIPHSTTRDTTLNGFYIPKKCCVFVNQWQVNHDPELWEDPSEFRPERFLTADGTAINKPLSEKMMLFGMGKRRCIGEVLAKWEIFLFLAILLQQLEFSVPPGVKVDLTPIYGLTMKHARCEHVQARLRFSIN
Experimental: Next, we tested VZHE-039 at concentrations of 0.1 to 100 µM, considered to be biologically relevant unbound plasma concentrations, for possible CYP inhibition using pooled human liver microsomes and isozyme-specific probe substrates (CYP1A2, CYP2C8, CYP2C9, CYP2C19, CYP2D6, CYP3A4, CYP2B6)[55].
VZHE-039 was studied for its inhibitory potential of seven major drug metabolizing human cytochrome P450 (CYP) enzymes (CYP1A2, CYP2C8, CYP2C9, CYP2C19, CYP2D6, CYP3A4, CYP2B6) using pooled human liver microsomes as published previously[26],[55]. The probe substrates include tacrine (CYP1A2), amodiaquine (CYP2C8), tolbutamide (CYP2C9), mephenytoin (CYP2C19), dextromethorphan (CYP2D6), midazolam (CYP3A4), testosterone (CYP3A4), and bupropion (CYP2B6). […] Assay conditions were optimized for each human cytochrome P450 substrate. The optimized reaction mixtures (200 μL) contained a final concentration of 0.2–0.5 mg/mL pooled human liver microsomes, 2 mM NADPH in 100 mM potassium phosphate, pH 7.4 buffer with 5 mM MgCl2, and VZHE-039 concentration of 0.1 to 100 µM. […] Effect of VZHE-039 on formation of the respective probe substrate metabolites (velnacrine, N‐desethylamodiaquine, 4-hydroxytolbutamide, 4′-hydroxymephenytoin, dextrophan, 1′-hydroxymidazolam, and 6β-hydroxtestosterone and hydroxybupropion) were determined using LC–MS/MS.

[2] = biological target: T2, HbS (Homo sapiens, UniProt P69905); assay: Hb modification (HbS adduct formation) by cation-exchange HPLC of lysates from SS cells; assay type: cell-based; conditions: SS cells, 20% hematocrit, HPLC of hemolysates
T2 construct: whole blood suspensions from subjects with homozygous SCD (Hct of 20%); from tissue; host or cells: whole blood / red blood cells of patients with homozygous SS sickle cell disease; lysate for HPLC and OEC
T2 sequence (P69905 2-142): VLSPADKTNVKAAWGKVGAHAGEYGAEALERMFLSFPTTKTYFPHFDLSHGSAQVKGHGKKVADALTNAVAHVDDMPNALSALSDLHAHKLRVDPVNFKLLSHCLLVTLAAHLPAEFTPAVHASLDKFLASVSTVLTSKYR
T2 sequence (P68871 with tags, fused parts or gaps E7V partner): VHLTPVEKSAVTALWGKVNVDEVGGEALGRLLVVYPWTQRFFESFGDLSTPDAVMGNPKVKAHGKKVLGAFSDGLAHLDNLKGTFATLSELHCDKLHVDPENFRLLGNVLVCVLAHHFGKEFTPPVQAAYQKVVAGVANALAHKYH
Experimental: For our previously studied compounds (e.g., INN-312, TD-7, SAJ-310, INN-298) that incorporate methoxyPy substitution to vanillin analogs, we observed a significant increase in functional and biological activity as a result of increased protein interactions[31],[33],[35],[36]. We therefore expected similar effects for VZHE-039, which we tested by following VZHE-039 activity (measured by Hb adduct formation, P50-shift and RBC sickling inhibition) using SS blood. Briefly, we incubated 0.5, 1, and 2 mM concentrations of VZHE-039 with whole blood suspensions from subjects with homozygous SCD (Hct of 20%) under hypoxic conditions (2.5% O2/97.5% N2) at 37 °C for 2 h for expected peak adduct. Aliquot blood samples were drawn into a fixative (2% glutaraldehyde solution), and sickling was assessed by microscopy[31],[33],[35],[36]. Aliquot samples were also subjected to cation-exchange HPLC analyses to assess the degree of Hb modification to the high-affinity adduct form (Hb adduct formation), as well as standard O2 equilibrium curves (OEC) to assess P50-shifts using hemox analyzer[31],[33],[35],[36]. […] The improved potency of Voxelotor has been attributed to reduced binding stoichiometry, i.e. while Voxelotor binds Hb at a 1:1 ratio, VZHE-039 binds Hb at a 2:1 ratio. […] This observation, as will be discussed later is likely due to a meaningful contribution from the novel O2-independent antisickling activity as result of the strong contact with the αF-helix.
The effect of VZHE-039 on RBC sickling, Hb modification, and Hb oxygen equilibrium was studied utilizing samples from consented individuals with homozygous SCD following previous procedure. Briefly, blood suspended in Hemox buffer and supplemented with glucose and bovine serum albumin, to a final hematocrit of 20% were incubated under air in the absence or presence of 0.5 mM, 1 mM and 2 mM VZHE-039 at 37 °C for 1 h. This was followed by incubating the suspensions under hypoxic conditions (2.5% O2/97.5% N2) at 37 °C for 2 h. Aliquot samples were obtained and fixed with 2% glutaraldehyde solution without exposure to air, and then subjected to microscopic morphological analysis of bright field images (at × 40 magnification) of single layer cells on an Olympus BX40 microscope fitted with an Infinity 2 camera (Olympus), and the coupled Image Capture software. Leftover samples were washed in phosphate-buffer saline, and hemolyzed in hypotonic lysis buffer for subsequent Hb-modification and oxygen equilibrium analyses.
Finally, for the Hb adduct formation studies, the above clarified lysates were subjected to cation-exchange HPLC (Hitachi D-7000 Series, Hitachi Instruments, Inc., San Jose, CA), using a weak cation-exchange column (Poly CAT A: 30 mm × 4.6 mm, Poly LC, Inc., Columbia, MD). A commercial standard consisting of approximately equal amounts of composite HbF, HbA, HbS and HbC (Helena Laboratories, Beaumont, TX), was utilized as the reference for isotypes. The areas of new peaks, representing HbS adducts, were obtained, calculated as percentage fractions of total Hb area, and reported as levels of modified Hb.

IC50 [1]: 4.7 µM
SMILES: O=Cc1c(O)cccc1OCc1cccc(CO)n1 [VZHE-039, 2-((6-(Hydroxymethyl)pyridin-2-yl)methoxy)-6-hydroxybenzaldehyde]
Hb Modification ([2]; 0.5 mM): 38% and 38.0 ± 7.2% | Hb Modification ([2]; 1 mM): 72% and 72.6 ± 6.4% | Hb Modification ([2]; 2 mM): 97.4 ± 6.7%
